{
  "source": "PubChem BioAssay AID602426",
  "about": "(Sanford-Burnham Center for Chemical Genomics, 2012)",
  "molecular_target": "Neurotensin receptor type 1 (Homo sapiens) (UniProt P30989)",
  "sequence (P30989 whole entry, looked up)": "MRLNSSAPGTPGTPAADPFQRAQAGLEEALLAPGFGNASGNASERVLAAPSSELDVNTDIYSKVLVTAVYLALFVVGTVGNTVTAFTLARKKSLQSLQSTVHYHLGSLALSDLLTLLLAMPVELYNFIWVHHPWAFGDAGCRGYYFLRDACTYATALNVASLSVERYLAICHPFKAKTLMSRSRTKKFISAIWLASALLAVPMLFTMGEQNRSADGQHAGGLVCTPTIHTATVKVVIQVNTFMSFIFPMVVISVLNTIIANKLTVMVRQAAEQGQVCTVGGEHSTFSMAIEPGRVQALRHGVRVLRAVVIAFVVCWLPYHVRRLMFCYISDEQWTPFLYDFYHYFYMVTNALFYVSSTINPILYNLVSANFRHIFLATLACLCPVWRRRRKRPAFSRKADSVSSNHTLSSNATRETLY",
  "experiment": "NTR1 agonists, beta-arrestin spot formation, SAR follow-up, imaging, image-based, set 4 (AID 602426)",
  "conditions": "NTR1-U2OS beta-arrestin-GFP spot imaging",
  "note": "pEC50: −log10 of the molar value.",
  "data": [
    {"smiles": "COc1cccc(OC)c1-c1cc(C(=O)N[C@@H](CC(C)C)C(=O)O)nn1-c1ccnc2cc(Cl)ccc12", "values": [
      {"measurement": "pEC50", "result": 6.03}
    ]}
  ]
}
